In PubChem BioAssay (NCI):
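Method: 48-hour compound exposure of cells in 96-well plates, five concentrations, linear interpolation of endpoints. GI50: concentration for 50% inhibition of growth. TGI: concentration producing complete growth inhibition.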

Tests used:
Assay in all cases: NCI tumour cell line growth inhibition, 48 h
[1] = tested on: HT29 colon
[2] = tested on: SF-295 CNS
[3] = tested on: UACC-62 melanoma
[4] = tested on: HOP-92 NSCLC
[5] = tested on: SR leukemia
[6] = tested on: OVCAR-4 ovarian
[7] = tested on: NCI-H522 lung
[8] = tested on: NCI-H226 lung
[9] = tested on: PC-3 prostate
[10] = tested on: MDA-MB-231 breast

Compound | TGI [1] [µM] | TGI [2] [µM] | TGI [3] [µM] | TGI [4] [µM] | TGI [5] [µM] | TGI [6] [µM] | TGI [7] [µM] | TGI [8] [µM] | GI50 [1] [µM] | GI50 [9] [µM] | TGI [9] [µM] | GI50 [2] [µM] | GI50 [3] [µM] | GI50 [5] [µM] | GI50 [6] [µM] | GI50 [10] [µM] | TGI [10] [µM] | GI50 [7] [µM] | GI50 [8] [µM] | GI50 [4] [µM]
O=C(Nc1ccccc1)O/N=C1/CCCC/C1=C\c1ccccc1 | 95.1 | 29.9 | 30 | 46 | 43.6 | 30.3 | 30.4 | 49.6 |  |  |  |  |  |  |  |  |  |  |  | 
Nc1ccc(CCN2CCN(c3cccc(C(F)(F)F)c3)CC2)cc1 | > 100 | > 100 | > 100 | > 100 | > 100 |  | > 100 | > 100 |  |  |  |  |  |  |  |  |  |  |  | 
CC(C)(C)[Si](C)(C)OC1[C@@H](O[Si](C)(C)C(C)(C)C)[C@@H](CNC(=O)NC(=O)NC(=O)CI)O[C@H]1n1cnc2c(NC(=O)Nc3ccccc3)ncnc21 (stereo partly specified) | 0.771 | 2.36 | 22.6 |  | 0.159 | 2.36 | 0.0522 | 20.6 | 0.225 | 0.385 | 3.42 | 0.849 | 8.63 | 0.0447 | 0.665 | 0.251 | 0.995 | 0.0262 | 10.4 | 
N#Cc1c2ccccc2c2nnc3cc(C(F)(F)F)ccc3n12 | > 100 | > 100 |  | > 100 | > 100 | > 100 |  |  | 58 | 48.1 | > 100 | 96.3 |  | 31.3 | 55.5 |  |  |  |  | 51.5
CN(C)CCCNC(=O)c1cc(NC(=O)c2cc(NC(=O)CCCN3c4ccccc4C=Cc4ccccc43)cn2C)cn1C | > 100 | 5.38 |  | 78.7 |  | 97.4 | 19.8 | > 100 | 3.59 | 5.33 | > 100 | 2.07 |  |  | 23.2 | 4.04 | 96 | 4.11 | 19.4 | 10
O=C(c1ccccc1)c1ccc2cccc(O)c2n1 |  | 52.7 | > 100 |  | > 100 | > 100 | 39.8 | > 100 |  |  |  |  |  |  |  |  |  |  |  | 
COC(=O)C1Cc2c(n(C)c3ccccc23)C(c2ccccc2)N1 (stereo unspecified) | > 100 | > 100 | > 100 | > 100 | > 100 | > 100 | 93.1 | > 100 |  |  |  |  |  |  |  |  |  |  |  | 
NC(=O)c1csc(C2O[C@@H](COP(=O)(O)OP(=O)(O)OC[C@H]3OC(n4cnc5c(N)ncnc54)[C@H](O)[C@@H]3O)[C@H](O)[C@@H]2O)n1 (stereo partly specified) | > 100 | > 100 | > 100 | > 100 |  | > 100 | > 100 | > 100 |  |  |  |  |  |  |  |  |  |  |  | 
NCCCn1c2c(c3ccccc3c1=O)C(=O)c1cc3c(cc1-2)OCO3 | 1.35 | 1.74 | 0.62 | 15.9 |  |  | 4.79 | 3.48 | 0.17 | 1.22 | 7.41 | 0.297 | 0.0631 |  |  | 0.72 | 4.54 | 0.474 | 0.514 | 0.568
CC(C)(C)C(=O)Nc1ccccc1Br | > 100 | > 100 | > 100 | > 100 |  | > 100 |  | > 100 |  |  |  |  |  |  |  |  |  |  |  | 
COc1cc(/C=C2\CC(C)CC3C2=NN(c2ccccc2)C3c2cc(OC)c(OC)c(OC)c2)cc(OC)c1OC (stereo unspecified) | 39.9 | 63.7 | 57.1 | 37.1 |  | > 100 | 59.3 | > 100 | 11.1 | 16.9 | > 100 | 10.3 | 11.7 |  | 14.2 | 14.4 | 71 | 10.2 | 37.4 | 13.6
COC1CCC2C(=O)CCCC2O1 (stereo unspecified) | > 100 | > 100 | > 100 | > 100 | > 100 | > 100 | > 100 | > 100 |  |  |  |  |  |  |  |  |  |  |  | 
COc1ccc(-c2nc3sccn3c2/C=C/C(=O)c2cc(OC)c(OC)c(OC)c2)cc1OC | 9.88 | 24 | 5.55 |  | 4.15 | 77.2 | 3.77 | 9.84 | 3.48 | 2.21 | 6.96 | 3.08 | 2.15 | 1.3 | 2.85 | 2.87 | 27.7 | 1.3 | 2.16 | 
O=C(Nc1cccc(C2=NCCN2)c1)c1ccc(OCCCOc2ccc(C(=O)Nc3cccc(C4=NCCN4)c3)cc2)cc1 |  | > 100 | 45.7 | 7 | > 100 |  |  |  |  | 2.78 | 8.21 | 3.29 | 1.41 | 1.96 |  |  |  |  |  | 1.25
COC(=O)C/C(C)=C/[C@@H](O)[C@H]1O[C@@H]2CC/C(Cl)=C/C/C=C(/C)[C@H](OC(C)=O)CC(=O)O[C@@H]1C2 | > 25 |  | 1.67 |  | 3.19 |  | > 25 | 11.8 | 1.26 | 1.08 | 4.13 |  | 0.694 | 0.813 |  | 4.07 | 11.8 | 1.29 | 4.76 | 
CCCCCCC(O)C/C=C/CCCCCC/C(C(=O)OC)=C(/O)C(=O)OCC (stereo unspecified) | > 100 | > 100 | > 100 | > 100 | > 100 | > 100 | > 100 | > 100 |  |  |  |  |  |  |  |  |  |  |  | 
CN(C)CCN1N=Nc2cccc3cccc1c23 | > 100 | > 100 | > 100 | > 100 | 40.2 | > 100 | > 100 | > 100 |  |  |  |  |  |  |  |  |  |  |  | 
O=[N+]([O-])c1ccc2c(c1)OCCOCCOc1ccc([N+](=O)[O-])cc1OCCOCCO2 | > 100 | > 100 | > 100 |  | > 100 | > 100 | > 100 | > 100 |  |  |  |  |  |  |  |  |  |  |  | 
Cc1cc(N(CCC#N)CCC#N)ccc1N=Nc1ccccc1[N+](=O)[O-] | > 100 | > 100 | > 100 |  |  | > 100 | > 100 | > 100 |  |  |  |  |  |  |  |  |  |  |  | 
